Square brackets hold non-standard residues; d marks the D form. Peptide text beside a SMILES is read from it. ξ: configuration not given here. ξLac(3-iPr) = CC(C)CC(O)C(=O)O; NMeV = CN[CH](C(=O)O)C(C)C; NMeA = CN[CH](C)C(=O)O; βAla = NCCC(=O)O
conditions: pampa; pH 5.0; 30.0 min; 50.0 µM

SMILES	Papp [nm/s]
COc1ccc(-n2nc(C3CCCN(C(=O)Cc4ccccn4)C3)[nH]c2=O)cc1 (stereo not drawn)	714
COc1ccc(C2c3c(oc4ccc(C)cc4c3=O)C(=O)N2CCCN2CCOCC2)cc1OC (stereo not drawn)	192
CCNC(=O)c1coc(COc2ccc3c(c2)C(c2ccc(F)cc2)N(C(=O)CC(C)C)CC3)n1 (stereo not drawn)	> 10000
COc1cccc(CN2CCNc3cc(Nc4ccccc4)ncc3C2)c1	1870
Cc1cc(C)nc(NS(=O)(=O)c2ccc(NC(=S)NC(=O)COc3ccc(Br)cc3Cl)cc2)n1	> 10000
CN(Cc1ccc(/C=C/C(=O)NO)cc1)CC12CC3CC(CC(C3)C1)C2	1080
Cc1nn2c(c1-c1ccccc1Oc1ccccc1)N(Cc1ccccc1O)CCC2	8790
CCC(=O)NC(c1ccc(OC)cc1)c1cc(Cl)c2cccnc2c1O (stereo not drawn)	57.5
CCOC(=O)NNc1ccc(N(CC)CC(C)O)nn1 (stereo not drawn)	85.7
CCCCn1cc2c(c1-c1ccc(Br)cc1)c(=O)n(C)c(=O)n2C	> 10000
Cc1ccc(-n2nc3c(=O)n(CCCC(=O)NC(C)c4ccccc4)nc(C)c3c2C)cc1 (stereo not drawn)	5620
COc1ccccc1CNC(=O)CCCn1nc(C)c2c(C)n(-c3ccc(C)cc3)nc2c1=O	2370
Cc1nn2c(c1-c1ccccc1OCc1ccccc1)N(C(=O)Cc1ccc3c(c1)OCO3)CCC2	> 10000
CN1CCCN(C(c2ccccc2)c2ccc(Cl)cc2)CC1 (stereo not drawn)	> 10000
C=C1[C@@H](C)C2[C@H](Cc3ccccc3)NC(=O)[C@@]23C(/C=C/C[C@H](C)C[C@@](C)(O)/C=C/[C@@H]3OC(C)=O)[C@@H]1O (stereo partly drawn)	550
CC(C)(C)C(=O)N1CCN(c2nccc(Nc3ccccc3Cl)n2)CC1	8950
COc1ccc2[nH]c(C[C@@H]3C[C@@H](C(C)C)[C@H](CNCc4ccccc4O)C=C3C)nc2n1	7390
COc1ccc2c(c1)CN(C(=O)CCN1CCC(Cc3ccccc3)CC1)CCS2	8070
CC(C)Oc1ccc(CNC(=O)C2CCN(C(=O)N3CCOc4ccc(Cl)cc43)CC2)cc1	8600
COc1ccc(Cn2c(C(=O)O)c(CNCc3ccco3)c3ccc(C)cc32)cc1	6180
C[C@H]1CN(C(=O)c2nn(C)c3ccccc23)C[C@@H]1c1nc(-c2cccnc2)no1	7390
CSc1nnc2c3ccccc3n(CCc3ccccc3)c2n1	> 10000
COC(=O)c1cccc(NC(=O)c2cnc(-c3ccc(F)cc3)nc2-c2ccncc2)c1	6710
Cc1onc(-c2ccc(F)cc2)c1COc1ccc(C(=O)N2CCS(=O)(=O)CC2)cn1	2910
COc1cccc(C(=O)Nc2nnc(S(=O)(=O)N3CCOCC3)s2)c1	7870

SMILES	Papp [nm/s]
COc1ccc(C2c3c(oc4ccc(Cl)cc4c3=O)C(=O)N2CCCN(C)C)cc1OC (stereo not drawn)	77.6
O=C(NC1CCCc2c1[nH]c1ccccc21)c1ccccc1 (stereo not drawn)	6800
C[C@H]1CN(C(=O)c2nn(C)c3ccccc23)C[C@@H]1c1nc(-c2ccncc2)no1	6670
COc1ccc(Nc2cnc3ccc(-c4ccc(OC)c(OC)c4)nn23)cc1	8210
COc1ccc(CN2CCNc3cc(Nc4ccccc4)ncc3C2)cc1	1190
CCOC(=O)N1CCN(Cc2nc3cc(NC(=O)c4ccc(OC)cc4)ccc3n2C(C)C)CC1	8080
NC(=O)Nc1cc(-c2ccc(CN3CCOCC3)cc2)sc1C(N)=O	11.9
CCOC(=O)c1[nH]c(C)c(CCC(=O)N2CCN(c3cc(C)ccc3C)CC2)c1C	> 10000
C[C@@]1(c2ncncc2F)NC(=O)c2cc(-c3cn[nH]c3)ccc21	> 10000
Cc1cnc(SCc2ccccn2)nc1C1CCCN(C(=O)c2scc3c2CCCC3)C1 (stereo not drawn)	> 10000
CCC1=Nc2cc(C(=O)NCCCOC)ccc2Sc2ccc(Br)cc21	> 10000
COc1ccc(CN2CCNc3cc(Nc4ccccc4)ncc3C2)cn1	23.8
c1ccc(CNc2cc3c(cn2)CN(Cc2cccnc2)CCN3)cc1	158
C[C@]1(CO)CN(c2cc(C(=O)Nc3ccc4c(c3)-c3c(c(C(N)=O)nn3-c3ccc(F)cc3)CC4)c(Cl)cn2)C[C@@]1(C)CO	456
COc1ccc(-c2ccc3ncc(Nc4cccnc4OC)n3n2)cn1	7580
COc1ccc(C(=O)N[C@@H]2CCC[C@@H]2C(=O)N2CCC(Cc3ccccc3)CC2)cc1	> 10000
c1ccc(-c2cn[nH]c2)cc1	512
CCC(C)C1NC(=O)C2CCCN2C(=O)C(CC(C)C)OC(=O)CCNC(=O)C(C)N(C)C(=O)C(C(C)C)N(C)C1=O (stereo not drawn) (cyclo([ξLac(3-iPr)]PI[NMeV][NMeA][βAla]); configuration not given here)	740
COc1ccc(N(C)C(=O)c2cc3c(s2)-c2ccccc2OC3)cc1	9630
O=c1[nH]c(C2CCCN(CC3CCCCC3)C2)nn1-c1ccc(Cl)cc1 (stereo not drawn)	> 10000
CCCCCn1c(CCCNC(=O)c2ccccc2OC)nc2ccccc21	4910
COc1ccccc1CNS(=O)(=O)c1ccc(-c2cnc(C3CC3)o2)cc1	> 10000
COc1ccc(CCNc2ncnc3onc(C)c23)c(OC)c1	5400
COc1ccc(C)cc1NS(=O)(=O)c1ccc(-c2cnc(C3CC3)o2)cc1	8830
CN(C)CC/C=C1\c2ccccc2Sc2ccc(Cl)cc21	5310

SMILES	Papp [nm/s]
CN(C)C(=O)c1nc(-c2ccc(Cl)cc2Cl)c2cnccn12	> 10000
CCc1nnc(NC(=O)c2nc(S(=O)(=O)Cc3ccc(C)cc3)ncc2Cl)s1	7110
Cc1cccc(N2CCN(c3nc4ccccc4c4nnc(C)n34)CC2)c1C	> 10000
O=C(Nc1ccc2c(N3CCOCC3)ncnc2c1)c1cccc(Br)c1	6540
CCn1cc(C(=O)N2CCN(c3cccc(Cl)c3)CC2)c2cc(OC)c(OC)cc2c1=O	8100
CCOc1ccccc1C(=O)NC1CCN(c2cc(C)cc(C)c2)C1=O (stereo not drawn)	> 10000
Cc1c(Cl)cccc1NC(=O)CNS(=O)(=O)c1cccs1	4580
CNC(=O)C1CCN(C(=O)c2ccc(-c3ncc4cnc(-c5ccccc5)cn34)cc2)CC1	301
CCCN1C(CC(C)C)=NS(=O)(=O)c2cc(NC(=O)c3ccco3)ccc21	2390
COc1ccc(S(=O)(=O)N(CC(=O)Nc2ccc(C)cc2)c2ccc(C)cc2)cc1OC	6630
COc1ccc(NC(=O)c2ccc[nH]2)cc1S(=O)(=O)Nc1ccc(Br)cc1	> 10000
Cn1c(=O)c2c(-c3ccc(Cl)cc3)n(CCc3ccccc3)cc2n(C)c1=O	7620
Nc1nc2c(s1)C(c1ccc(F)cc1F)CC(=O)N2 (stereo not drawn)	50
NC1(c2ccccc2Cl)CCCCC1=O (stereo not drawn)	111
CC[C@H]1CN2CCC3CC(OC)C(OC)CC3[C@@H]2C[C@@H]1C[C@H]1NCCC2=C1CC(OC)=C(O)C2 (stereo partly drawn)	179
Cc1nn2c(c1-c1ccccc1-c1ccccc1)N(Cc1ccc(C(=O)O)s1)CCC2	5230
CCC(CC)c1cc([C@H]2CN3CC[C@H]2C[C@@H]3CNC(=O)Cc2cccs2)nc(-c2ccncc2)n1	3200
COc1ccc(-c2noc([C@@H]3Cc4nc[nH]c4CN3C(=O)NC3CCCCC3)n2)cc1	582
CC(=O)NCCNC(=O)c1ccc(-c2ncc3cnc(-c4cccc(F)c4)cn23)cc1	76.2
COc1cccc(C(=O)Nc2nc(-c3nnn(-c4ccccc4C(F)(F)F)c3C)ns2)c1	8340
COc1cc2c(c(OC)c1OC)-c1ccc(OC)c(=O)cc1[C@@H](NC(C)=O)CC2	45.1
CN1CCCC(CC2c3ccccc3Sc3ccccc32)C1 (stereo not drawn)	> 10000
COc1cccc(Cn2c(=O)n(-c3cccc(Cl)c3C)c(=O)c3c4c(sc32)CN(C(C)=O)CC4)c1	> 10000

Source: PubChem BioAssay AID1645871
